The nature of data set [1]: Compatibility with 20% hydrochloric acid system containing iron ion stabilizer, clay stabilizer and discharge aiding agent. Type of data set: physicochemical. The note with it: 0.1 g in 20% hydrochloric acid system with citric acid, potassium chloride and OP-10 or fluorocarbon surfactant; 90° C. The method, then: The water solubility of the corrosion inhibitor prepared by Embodiments 1 to 4 and its compatibility with the system containing the iron ion stabilizer, clay stabilizer and discharge aiding agent under 90° C. are determined. The process is as follows: weigh 0.1 g of the corrosion inhibitor respectively, and dissolve in 200 mL of 20% hydrochloric acid solution, stir and observe its dissolution. Prepare 20% hydrochloric acid solution system adding with iron ion stabilizer citric acid, clay stabilizer potassium chloride and discharge aiding agent OP-10 or fluorocarbon surfactant, respectively, and then weigh 0.1 g of the corrosion inhibitor and add them to the 20% hydrochloric acid solution system, to observe the compatibility.

For data set [2] the following is noted: 0.1 g corrosion inhibitor in 200 mL of 20% hydrochloric acid solution, stirred, dissolution observed.
Data set [3] can be described thus: 4 h corrosion weight loss test (corrosion inhibition performance). The note with it: P110 carbon steel, 20% hydrochloric acid, 90° C., 1000 ppm corrosion inhibitor. The method, then:
The corrosion inhibition performance of corrosion inhibitors in the embodiments 1 to 4 is determined by a 4 h corrosion weight loss test at 90° C. using 20% hydrochloric acid as a corrosive medium and P110 carbon steels. The amount of corrosion inhibitors is 1000 ppm.

`O=C(/C=C/c1ccccc1)CC(c1cccc(-c2cccs2)c1)[N+](Cc1ccccc1)(Cc1ccccc1)Cc1ccccc1` (stereo not drawn) [Embodiment 1]: in data set [1], the Compatibility entry is “Uniform and transparent, no”. Besides, the Water solubility entry in data set [2] is given as “Soluble reddish brown”. Also, the Inhibition rate in data set [3] stood at 98.63%.
As for `O=C(CC(=C(c1ccccc1)c1ccccc1)c1ccccc1)CC(/C=C/c1ccccc1)[N+]1(Cc2ccc3ccccc3c2)CCCCC1C(c1ccccc1)c1ccccc1` (stereo not drawn) [Embodiment 2], the Compatibility entry in data set [1] was “Uniform and transparent, no”. Also, the Water solubility result in data set [2] is “Soluble reddish brown”. In data set [3], this compound came in with an Inhibition rate of 97.96%.
Consider `O=C(/C=C/c1ccccc1)CC(/C=C/c1ccccc1)[N+]1(C(c2ccccc2)(c2ccccc2)c2ccccc2)C=Cc2ccccc21` (stereo not drawn) [Embodiment 3], for which, in data set [1], the Compatibility result is “Uniform and transparent, no”. In addition, the Water solubility result in data set [2] is reported as “Soluble reddish brown”. Besides, the Inhibition rate in data set [3] was found to be 98.59%.
In the case of `CC(O)C[N+](Cc1ccc2ccccc2c1)(CC(C)O)C(CC(=O)CC(=C(c1ccccc1)c1ccccc1)c1ccccc1)c1cccc(-c2cccs2)c1` (stereo not drawn) [Embodiment 4], the Compatibility result in data set [1] is “Uniform and transparent, no”. The Water solubility entry in data set [2] is “Soluble reddish brown”. Besides, the Inhibition rate in data set [3] is 98.41%.

Source of the values: patent US11161811B2, “Process for preparing Mannich base quaternary ammonium salt high-temperature resistant corrosion inhibitor and applications thereof” (SOUTHWEST PETROLEUM UNIVERSITY, priority 2018, dated 2021).
